Experimental data from patent publication US10111885B2, “Compositions and therapeutic methods for the treatment of complement-associated diseases” (Resverlogix Corp., priority 2015, dated 2018).
Where two headings read alike, the source gives them in different places.

Columns and labels:
C3 mRNA = assay: Complement gene mRNA expression, TaqMan real-time PCR, HepG2 cells; format: cell-based, human; conditions: for IC50: Homo sapiens
From the text: (§1) In this example, mRNA levels from cultured cells were quantitated. The assay can be used to determine the effect of compound(s) on regulating mRNA levels, including those compounds in the present invention. Complement genes are expressed at high endogenous levels, but their expression can also be stimulated with various cytokines in inflammatory conditions. Experiments in this example target both basal and inflammatory complement gene expression. Compound mediated changes in gene expression and resulting mRNA levels are presented in Tables 2, 3 and 4 as well as FIGS. 1, 2, 3 and 4 below.
(§2) Huh-7 and HepG2 cells are liver-derived cell lines and are models for what can occur in the liver. Huh-7 cells (JCRB Cell Bank) were introduced to 96-well plates (^˜2.5×10^5 per well) in 100 μL DMEM containing 10% (v/v) FBS, 100 U/mL penicillin, 100 ug/mL streptomycin and 5 ug/mL plasmocin (all reagents from Gibco, except for the former, which was obtained from Invivogen). After 24 h, Huh-7 cells were treated with compounds in the same media formulation used for plating, and supplemented with 0.1% DMSO for the amount of time indicated in tables 2, 3, and 4. For select experiments, 24 h post-plating, cells were treated with cytokines and the compound of interest simultaneously, for a total treatment time of 48 h. Alternatively, 24 h after plating, cells were pre-treated with cytokines for 24 h before adding the compound of interest for 48 h. HepG2 cells (ATCC) were cultured in 96-well plates (^˜2.5×10^5 per well) in MEM containing 10% FBS, 1× non-essential amino acids, 1 mM sodium pyruvate, 2 mM L-glutamine, 100 U/mL penicillin, 100 ug/mL streptomycin and 5 ug/mL plasmocin. Serum amount was reduced to 0.5% for treatments with compound or cytokines. Timing of treatment of HepG2 cells with compounds and cytokines was as described for Huh-7 cells. Primary human hepatocytes (CellzDirect/Life Technologies) were plated in collagen coated 96-well plates at 70 000 cells/well, then overlaid with Matrigel™ as recommended by the supplier. Cells were treated with compounds of interest and/or cytokines for the indicated time points in the recommended media supplemented with 0.1% DMSO and 10% FBS (v/v). Cells were harvested by mRNA Catcher PLUS Kit (Life Technologies) followed by real-time PCR using the RNA UltraSense One-Step qRT-PCR System. The level of the mRNA of interest was measured by TaqMan real-time PCR relative to the endogenous control cyclophilin A in the same sample. Data were acquired using the ViiA-7 Real Time PCR System (Applied Biosystems).
(§3) Downregulation of expression of components of the complement cascade will result in reduced activity of the pathway and thus will constitute a positive result. Tables 2 and 3 list the concentration of compounds at which the level of the indicated mRNA is reduced by 50%, as well as the duration of treatment with compound. Table 4 lists the maximum reduction in the indicated mRNA measured in primary human hepatocytes treated with compounds for up to 72 hours. FIGS. 1, 2, 3 and 4 show effects of compounds on cytokine-induced (i.e. inflammatory) expression of complement genes in Huh-7 cells and HepG2 cells.

C4a/C4b mRNA = assay: as above; format: cell-based, human; conditions: for IC50: Homo sapiens, HepG2, 72 h, read-out: C4a/C4b (72 h) mRNA, half maximal inhibitory concentration (IC50)
From the text: as §1, §2, §3

C5 mRNA = assay: as above; format: cell-based, human; conditions: for IC50: Homo sapiens, HepG2, 72 h, read-out: C5 (72 h) mRNA, half maximal inhibitory concentration (IC50)
From the text: as §1, §2, §3

MBL2 mRNA = assay: as above; format: cell-based; conditions: Homo sapiens; HepG2, 48 h treatment; read-out: MBL2 (48 h) mRNA, half maximal inhibitory concentration (IC50)
From the text: as §1
as §2, with “Data were acquired using the ViiA-7 Real Time PCR System (Applied Biosystems).” left out
(§4) Downregulation of expression of components of the complement cascade will result in reduced activity of the pathway and thus will constitute a positive result. […] Table 4 lists the maximum reduction in the indicated mRNA measured in primary human hepatocytes treated with compounds for up to 72 hours. […]

C1S mRNA = assay: as above; format: cell-based; conditions: Homo sapiens; HepG2, 48 h treatment; read-out: C1S (48 h) mRNA, half maximal inhibitory concentration (IC50)
From the text: as §1
as §2, with “Data were acquired using the ViiA-7 Real Time PCR System (Applied Biosystems).” left out
as §4

complement C4 protein = assay: Secreted complement protein ELISA, Huh-7 cells; format: cell-based, human; conditions: for C4 secretion, percent maximum reduction in protein levels: Huh-7, 72 h, ± standard deviation
Experimental: (§5) In this example, protein secretion from cells grown in culture in the presence of compound of interest was analyzed by enzyme linked immunosorbent assay (ELISA). In some cases, cultured cells were treated with cytokines and the compound of interest to mimic an inflammatory state. The method can be used to determine the effect of compounds, including those in the present invention, on the secretion of specific proteins from cells grown in culture under basal and cytokine stimulated (i.e. inflammatory) conditions (Table 7, FIGS. 5 and 6).
(§6) Huh-7 cells (JCRB Cell Bank) were introduced to 24-well plates in 500 μL DMEM supplemented with 10% (v/v) FBS, 100 U/mL penicillin, 100 ug/mL streptomycin and 5 ug/mL plasmocin (all reagents from Gibco, except for the former, which comes from Invivogen) at 200 000 cells/well. After 24 h, cells were treated with the compound of interest and/or cytokines in DMEM with 10% FBS containing 0.1% DMSO for a total treatment time of 72 h. Fresh media containing compounds and/or cytokines was introduced in the final 24 h of the experiment. At harvest, media were collected, debris was removed by brief centrifugation, and ELISA assays for the indicated proteins were performed as per the manufacturer's protocol. To correct for differences in cell numbers, values obtained for complement proteins were normalized to values for transferrin. HepG2 cells (ATCC) were cultured in MEM containing 10% FBS, 1× non-essential amino acids, 1 mM sodium pyruvate, 2 mM L-glutamine, 100 U/mL penicillin, 100 ug/mL streptomycin and 5 ug/mL plasmocin. Serum amount was reduced to 0.5% when compounds were present. Treatment combinations and timing were as described above for Huh-7 cells. Primary human hepatocytes (CellzDirect/Life Technologies) were plated in collagen coated 96-well plates at 70 000 cells/well, then overlaid with Matrigel™ as recommended by the supplier. Cells were treated with compounds of interest with or without the indicated cytokines for a total of 72 h in the recommended media supplemented with 10% FBS and 0.1% DMSO (v/v). Media were collected for measurements of secreted proteins.
(§7) The ELISA kits for detection of complement C3, C4, C5 and C9 were obtained from AssayPro (St. Charles, Mo.), while the ELISA reagents for transferrin detection were from Bethyl Laboratories (Montgomery, Tex.). Data were collected on a Thermo Scientific Multiskan GO apparatus. Downregulation of expression of components of the complement cascade will result in reduced activity of the pathway and thus will constitute a positive result.

complement C3 protein = assay: Secreted complement protein ELISA, Huh-7 cells; format: cell-based, human; conditions: for C3 secretion, percent maximum reduction in protein levels: Huh-7, 72 h, ± standard deviation
Experimental: as §5, §6, §7

complement C5 protein = assay: Secreted complement protein ELISA, Huh-7 cells; format: cell-based, human; conditions: for C5 secretion, percent maximum reduction in protein levels: Huh-7, 72 h, ± standard deviation
Experimental: as §5, §6, §7

[1] = HepG2, 72 h, read-out: C3 (72 h) mRNA, half maximal inhibitory concentration (IC50)
[2] = HepG2 pre-treated with cytokines
[3] = HepG2 treated simultaneously with cytokines
[4] = 30 uM, Huh-7 treated simultaneously with IL-6

Molecule `Cc1sc2c(c1C)C(c1ccc(Cl)cc1)=N[C@@H](CC(=O)OC(C)(C)C)c1nnc(C)n1-2` [JQ1, (S)-tert-butyl 2-(4-(4-chlorophenyl)-2,3,9-trimethyl-6H-thieno[3,2-f][1,2,4]triazolo[4,3-a][1,4]diazepin-6-yl)acetate, reference compound] has an IC50 (C3 mRNA; HepG2, 48 h, read-out: C3 (48 h) mRNA, half maximal inhibitory concentration (IC50)) of 200 nM, an IC50 (C3 mRNA; [1]) of 490 nM and an IC50 (C4a/C4b mRNA) of 250 nM. It also gave an IC50 (C5 mRNA) of 460 nM, an IC50 (MBL2 mRNA) of 30 nM and an IC50 (C1S mRNA) of 120 nM. The “C4 secretion, percent maximum reduction in protein levels” value (complement C4 protein; 0.75 uM) was 81 ± 6%, the “C3 secretion, percent maximum reduction in protein levels” value (complement C3 protein; 0.75 uM) was 99 ± 1% and the “C5 secretion, percent maximum reduction in protein levels” value (complement C5 protein; 0.75 uM) was 50 ± 13%.

`COc1cc(OC)c2c(=O)[nH]c(-c3cc(C)c(OCCO)c(C)c3)nc2c1` [RVX000222, 2-(4-(2-hydroxyethoxy)-3,5-dimethylphenyl)-5,7-dimethoxyquinazolin-4(3H)-one] was tested, and the “expression of complement component 3 at the mRNA level (FIG. 4)” value (C3 mRNA; [2]) was “reduces expression”, the “expression of complement component 3 at the mRNA level (FIG. 2)” value (C3 mRNA; [3]) was “reduces expression” and the IC50 (C3 mRNA; [1]) was 25000 nM. For the same molecule, the “expression of complement component 4 at the mRNA level (FIG. 4)” value (C4a/C4b mRNA; [2]) was “reduces expression”, the “expression of complement component 4 at the mRNA level (FIG. 2)” value (C4a/C4b mRNA; [3]) was “reduces expression” and the IC50 (C4a/C4b mRNA) was 10000 nM. The “expression of complement component 5 at the mRNA level (FIG. 4)” value (C5 mRNA; [2]) was “reduces expression”, the “expression of complement component 5 at the mRNA level (FIG. 2)” value (C5 mRNA; [3]) was “reduces expression” and the IC50 (C5 mRNA) was 20000 nM. For the same molecule, the IC50 (MBL2 mRNA) was 3880 nM, the IC50 (C1S mRNA) was 9560 nM and the “C4 secretion, percent maximum reduction in protein levels” value (complement C4 protein; 30 uM) was 79 ± 3%. For the same molecule, the “secretion of C4 protein (FIG. 5)” value (complement C4 protein; [4]) was “reduces secretion”, the “C3 secretion, percent maximum reduction in protein levels” value (complement C3 protein; 30 uM) was 87 ± 9% and the “secretion of C3 protein (FIG. 5)” value (complement C3 protein; [4]) was “reduces secretion”. For the same molecule, the “C5 secretion, percent maximum reduction in protein levels” value (complement C5 protein; 30 uM) was 53 ± 7% and the “secretion of C5 protein (FIG. 5)” value (complement C5 protein; [4]) was “reduces secretion”.
